These compounds were tested against human PDHK2 (hPDHK2) (Homo sapiens (Human), UniProt Q15119) (assay: Inhibitory action of PDHK2 activity (PDH/hPDHK2 complex, residual PDH activity by NADH absorbance at 340 nm)). Conditions: FLAG-tagged recombinant hPDHK2 with porcine heart PDH complex; PDHK reaction 45 min at room temperature.
Type: biochemical
Procedure: In the case of human PDHK2 (hPDHK2, NCBI Reference Database Accession number NM_002611.4), modified hPDHK2 cDNA wherein FLAG-Tag sequence was added to the N terminal of hPDHK2 cDNA clone (pReceiver-M01/PDK2-GeneCopoeia) as the base was prepared by polymerase chain reaction (PCR) and ligated to the NdeI/EcoRI site of pET-17b vector (Merck KGaA, Catalog Number 69663-3). The recombinant construct was transformed into Escherichia coli DH5a. The recombinant clones were identified, and plasmid DNA was isolated and subjected to the DNA sequence analysis. One clone which had the expected nucleic acid sequence was selected for expression work.
For expression of hPDHK2 activity, Escherichia coli strain BL21(DE3) cells (Merck KGaA, Catalog Number 69450-4) were transformed with the pET17b vector containing modified hPDHK2 cDNA. The Escherichia coli were grown to an optical density 0.6 ([…]) at 30° C. Protein expression was induced by the addition of 500 μmol/L isopropyl-β-thiogalactopyranoside. The Escherichia coli were cultured at 20° C. for 17 to for 18 hr and harvested by centrifugation. The harvested Escherichia coli was resuspended in a suspension buffer (20 mmol/L HEPES-NaOH, 500 mmol/L sodium chloride, 1% ethylene glycol, 0.1% Pluronic (registered trademark) F-68 (pH 8.0), cOmplete, EDTA-free (Roche) (pH 8.0)), and disrupted by a microfluidizer M-110H (MIZUHO INDUSTRIAL CO., LTD.). The precipitate was removed by centrifugation and the supernatant was added to DDDDK-tagged Protein PURIFICATION GEL (MEDICAL & BIOLOGICAL LABORATORIES CO., LTD., Code No. 3329). DDDDK-tagged Protein PURIFICATION GEL was washed with a washing buffer (20 mmol/L HEPES-NaOH, 500 mmol/L sodium chloride, 1% ethylene glycol, 0.1% Pluronic F-68 (pH 8.0)) and the bound protein was eluted with elution buffer 1 (20 mmol/L HEPES-NaOH, 100 μg/mL peptide (amino acid sequence DYKDDDDK) (SEQ ID NO: 1), 500 mmol/L sodium chloride, 1% ethylene glycol, 0.1% Pluronic F-68 (pH 8.0)). The eluted fractions containing FLAG-Tagged protein were pooled, concentrated by an ultrafiltration method, added to a gel filtration column (HiLoad 26/60 Superdex 200 (GE Healthcare Life Sciences, Code No. 17-1070-01)), and eluted with elution buffer 2 (20 mmol/L HEPES-NaOH, 150 mmol/L sodium chloride, 0.5 mmol/L ethylenediaminetetraacetic acid (EDTA), 1% ethylene glycol, 0.1% Pluronic F-68 (pH 8.0)). The eluted fractions were pooled and preserved at −80° C.
PDH (porcine heart PDH complex, Sigma P7032) and 0.5 μg/mL hPDHK2 were mixed in an assay buffer (50 mmol/L 3-morpholinopropanesulfonic acid (pH 7.0), 20 mmol/L dipotassium hydrogen phosphate, 60 mmol/L potassium chloride, 2 mmol/L magnesium chloride, 0.4 mmol/L EDTA, 0.2% poloxamer, 2 mmol/L dithiothreitol) so that the final concentration of PDH was 0.025 U/mL, and the mixture was incubated at 4° C. overnight to obtain a PDH/hPDHK2 complex solution.
PDH was mixed with the assay buffer so that the final concentration was 0.025 U/mL, and the mixture was incubated at 4° C. overnight to prepare a PDH solution.
The test compounds were diluted with DMSO. […] DMSO (1.5 μL) was added to control wells instead of test compound. In addition, DMSO (1.5 μL) was added to blank wells instead of the test compound, and PDH solution was added instead of the PDH/hPDHK2 complex solution. To measure an inhibitory action of the test compound on the PDHK activity inherent in the PDH solution, a test compound was added and the PDH solution instead of the PDH/hPDHK2 complex solution was added to a blank+test compound well.
Then, 10 μL of substrates (5 mmol/L sodium pyruvate, 5 mmol/L Coenzyme A, 12 mmol/L NAD, 5 mmol/L thiamine pyrophosphate, diluted with assay buffer) were added. The mixture was incubated at room temperature for 90 min, and the residual PDH activity was measured.
The absorbance of each well at 340 nm was measured using a microplate reader to detect NADH produced by the PDH reaction. […]

SMILES | IC50
COc1cc2n(n1)C[C@H](C)n1c-2cnc1[C@@](C)(O)C(F)(F)F [Example 67] | 11.5 nM
C[C@@H]1Cc2nn(CC#N)cc2-c2onc([C@](C)(O)C(F)(F)F)c21 [Example 49] | 19.5 nM
C[C@H]1Cc2c(cnn2CC(C)(C)O)-c2onc([C@@](C)(O)C(F)(F)F)c21 (racemic) [Example 39] | 14.4 nM
C[C@H]1Cc2c(cnn2[C@H]2CC[C@](C)(O)CC2)-c2onc([C@@](C)(O)C(F)(F)F)c21 (racemic) [Example 56, (1S,4r)-1-methyl-4-((S)-4-methyl-3-((R)-1,1,1-trifluoro-2-hydroxypropan-2-yl)-4,5-dihydro-6H-isoxazolo[5,4-e]indazol-6-yl)cyclohexan-1-ol and enantiomer thereof] | 10.7 nM
C[C@H]1Cn2nc(O[C@H]3C[C@](C)(C#N)C3)cc2-c2onc([C@@](C)(O)C(F)(F)F)c21 (racemic) [Example 47] | 25.8 nM
C[C@H]1Cn2nc(OCF)cc2-c2onc([C@@](C)(O)C(F)(F)F)c21 [Example 64, (R)-1,1,1-trifluoro-2-((R)-8-(fluoromethoxy)-4-methyl-4,5-dihydroisoxazolo[5,4-c]pyrazolo[1,5-a]pyridin-3-yl)propan-2-ol] | 7.5 nM
C[C@H]1Cn2nc(C34CCC(C(C)(C)O)(CC3)CC4)cc2-c2cnc([C@@](C)(O)C(F)(F)F)n21 [Example 75] | 10 nM
C[C@H]1Cn2nc(C(F)(F)F)cc2-c2cnnc([C@@](C)(O)C(F)(F)F)c21 (racemic) [Example 99, mixture of (R)-1,1,1-trifluoro-2-((R)-5-methyl-9-(trifluoromethyl)-5,6-dihydropyrazolo[1′,5′:1,2]pyrido[3,4-d]pyridazin-4-yl)propan-2-ol and (S)-1,1,1-trifluoro-2-((S)-5-methyl-9-(trifluoromethyl)-5,6-dihydropyrazolo[1′,5′:1,2]pyrido[3,4-d]pyridazin-4-yl)propan-2-ol] | 23.4 nM
C[C@H]1Cc2nn([C@H]3CC[C@](C)(O)CC3)cc2-c2onc([C@@](C)(O)C(F)(F)F)c21 (racemic) [Example 55, (1S,4r)-1-methyl-4-((S)-4-methyl-3-((R)-1,1,1-trifluoro-2-hydroxypropan-2-yl)-4,5-dihydro-7H-isoxazolo[5,4-e]indazol-7-yl)cyclohexan-1-ol and enantiomer thereof] | 14.3 nM
C[C@H]1Cn2nc(N3C[C@H]4COC[C@H]4C3)cc2-c2cnc([C@@](C)(O)C(F)(F)F)n21 [Example 80] | 43.4 nM
C[C@H]1Cn2nc(OCCC(C)(C)O)cc2-c2onc([C@@](C)(O)C(F)(F)F)c21 [Example 62, 2-methyl-4-(((R)-4-methyl-3-((R)-1,1,1-trifluoro-2-hydroxypropan-2-yl)-4,5-dihydroisoxazolo[5,4-c]pyrazolo[1,5-a]pyridin-8-yl)oxy)butan-2-ol] | 8 nM
C[C@H]1Cn2nc(C34CCC(C#N)(CC3)C4)cc2-c2cnc([C@@](C)(O)C(F)(F)F)n21 [Example 86, 4-((S)-5-methyl-3-((R)-1,1,1-trifluoro-2-hydroxypropan-2-yl)-5,6-dihydroimidazo[1,5-a]pyrazolo[5,1-c]pyrazin-9-yl)bicyclo[2.2.1]heptane-1-carbonitrile] | 14.1 nM
C[C@H]1Cn2nc(C3CCOCC3)cc2-c2onc([C@@](C)(O)C(F)(F)F)c21 [Example 61, (R)-1,1,1-trifluoro-2-((R)-4-methyl-8-(tetrahydro-2H-pyran-4-yl)-4,5-dihydroisoxazolo[5,4-c]pyrazolo[1,5-a]pyridin-3-yl)propan-2-ol] | 9.8 nM
C[C@H]1Cc2nn(CCC#N)cc2-c2onc([C@@](C)(O)C(F)(F)F)c21 (racemic) [Example 32] | 20.1 nM
C[C@H]1Cc2c(cnn2CC#N)-c2onc([C@@](C)(O)C(F)(F)F)c21 (racemic) [Example 50] | 14.5 nM
C[C@H]1Cn2nc(N3CC4CC(C3)C4(F)F)cc2-c2cnc([C@@](C)(O)C(F)(F)F)n21 [Example 79] | 35.2 nM

The remaining lines, values ahead:

IC50 | SMILES
21.2 nM | C[C@H]1Cc2nn(C3CC(C#N)C3)cc2-c2onc([C@@](C)(O)C(F)(F)F)c21 (stereo in doubt) [Example 30]
> 100 nM | COC(=O)C12CCC(c3cc4n(n3)C[C@H](C)c3c-4cnnc3[C@@](C)(O)C(F)(F)F)(CC1)CC2 (racemic) [Example 102, methyl 4-[(R)-5-methyl-4-((R)-1,1,1-trifluoro-2-hydroxypropan-2-yl)-5,6-dihydropyrazolo[1′,5′:1,2]pyrido[3,4-d]pyridazin-9-yl]bicyclo[2.2.2]octane-1-carboxylate and methyl 4-[(S)-5-methyl-4-((S)-1,1,1-trifluoro-2-hydroxypropan-2-yl)-5,6-dihydropyrazolo[1′,5′:1,2]pyrido[3,4-d]pyridazin-9-yl]bicyclo[2.2.2]octane-1-carboxylate]
11.7 nM | Cc1nnc2n1C[C@H](C)c1c([C@@](C)(O)C(F)(F)F)noc1-2 [Example 6]
14 nM | C[C@H]1Cn2nc(O[C@H]3CCOC3)cc2-c2onc([C@@](C)(O)C(F)(F)F)c21 (racemic) [Example 36]
26.4 nM | C[C@H]1Cn2nc(OC(F)F)cc2-c2onc([C@@](C)(O)C(F)(F)F)c21 (racemic) [Example 45]
24.3 nM | C[C@H]1Cn2c(nnc2C(F)(F)F)-c2onc([C@@](C)(O)C(F)(F)F)c21 [Example 1, (R)-1,1,1-trifluoro-2-((R)-6-methyl-3-(trifluoromethyl)-5,6-dihydroisoxazolo[5,4-c][1,2,4]triazolo[4,3-a]pyridin-7-yl)propan-2-ol]
11.1 nM | C[C@H]1Cn2nc(C(F)(F)F)cc2-c2cnnc([C@@](C)(O)C(F)(F)F)c21 [Example 100, (R)-1,1,1-trifluoro-2-((R)-5-methyl-9-(trifluoromethyl)-5,6-dihydropyrazolo[1′,5′:1,2]pyrido[3,4-d]pyridazin-4-yl)propan-2-ol]
12.2 nM | C[C@H]1Cc2c(cnn2C(C)(C)C)-c2onc([C@@](C)(O)C(F)(F)F)c21 (racemic) [Example 16]
49.5 nM | C[C@H]1Cn2nc(C34CCC(CO)(CC3)CO4)cc2-c2cnc([C@@](C)(O)C(F)(F)F)n21 [Example 94]
15.9 nM | C[C@H]1Cn2nc(OCC3COC3)cc2-c2onc([C@@](C)(O)C(F)(F)F)c21 (racemic) [Example 46]
14.4 nM | C[C@H]1Cn2nc(OCC(C)(C)O)cc2-c2onc([C@@](C)(O)C(F)(F)F)c21 (racemic) [Example 14]
6.6 nM | COC(=O)C12CCC(c3nnc4n3C[C@H](C)c3c([C@@](C)(O)C(F)(F)F)noc3-4)(CC1)CC2 [Example 11]
33.4 nM | C[C@H]1Cn2nc(C34CCC(C#N)(CC3)CO4)cc2-c2cnc([C@@](C)(O)C(F)(F)F)n21 [Example 93, 1-((S)-5-methyl-3-((R)-1,1,1-trifluoro-2-hydroxypropan-2-yl)-5,6-dihydroimidazo[1,5-a]pyrazolo[5,1-c]pyrazin-9-yl)-2-oxabicyclo[2.2.2]octane-4-carbonitrile]
14.5 nM | C[C@H]1Cn2nc(C34CC(C(C)(C)O)(C3)C4)cc2-c2cnc([C@@](C)(O)C(F)(F)F)n21 [Example 76]

Same assay, conditions: at 100.0 nM, given when the IC50 value could not be calculated; read-out: hPDHK2 inhibitory rate

SMILES | inhibition at 0.1 µM
COC(=O)C12CCC(c3cc4n(n3)C[C@H](C)c3c-4cnnc3[C@@](C)(O)C(F)(F)F)(CC1)CC2 (racemic) [Example 102, methyl 4-[(R)-5-methyl-4-((R)-1,1,1-trifluoro-2-hydroxypropan-2-yl)-5,6-dihydropyrazolo[1′,5′:1,2]pyrido[3,4-d]pyridazin-9-yl]bicyclo[2.2.2]octane-1-carboxylate and methyl 4-[(S)-5-methyl-4-((S)-1,1,1-trifluoro-2-hydroxypropan-2-yl)-5,6-dihydropyrazolo[1′,5′:1,2]pyrido[3,4-d]pyridazin-9-yl]bicyclo[2.2.2]octane-1-carboxylate] | 3%
